Format in all cases: biochemical
One test deals with PKC alpha kinase (Homo sapiens, UniProt P17252). Kind of test: PKC alpha kinase inhibition, coupled-enzyme (NADH absorbance) assay, Ki. The conditions noted are these: 130 μM ATP, 4.5 nM PKC alpha kinase, 30° C. In a few lines: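 Ki derived by non-linear regression of initial rates from a coupled assay tracking NADH absorbance at 340 nm over 15 min at 30 °C. ATP was 130 μM final after a 10 min compound–enzyme preincubation in HEPES pH 7.5 buffer with MgCl2, CaCl2, NaCl, EDTA and Brij.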

For the next test, the target named is PKC delta kinase (Homo sapiens, UniProt Q05655). As to the kind of experiment: PKC delta kinase inhibition, coupled-enzyme (NADH absorbance) assay, Ki. Conditions: 150 μM ATP, 46 nM PKC delta kinase, 30° C.; read-out: Ki PKC delta. The essentials:
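Enzyme and compound pre-equilibrated 10 min at 30° C before adding ATP to 150 μM final. Buffer: HEPES pH 7.5 (100 mM), 10 mM MgCl2, 25 mM NaCl, 0.1 mM EDTA, 0.01% Brij.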

Another test addresses PKC theta kinase (Homo sapiens, UniProt Q04759). As to the kind of experiment: PKC theta kinase inhibition, coupled-enzyme (NADH absorbance) assay, Ki. Conditions: 240 μM ATP, 18 nM PKC theta kinase, 30° C. The essentials:
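Enzyme and compound equilibrated 10 min at 30 °C before reaction in HEPES pH 7.5 buffer with MgCl2, NaCl, EDTA and Brij. Activity tracked as NADH loss at 340 nm through a coupled system. Initial-rate data fitted by non-linear regression to give Ki.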

Structures are written as SMILES.

Sequence of PKC theta kinase (Q04759 whole entry): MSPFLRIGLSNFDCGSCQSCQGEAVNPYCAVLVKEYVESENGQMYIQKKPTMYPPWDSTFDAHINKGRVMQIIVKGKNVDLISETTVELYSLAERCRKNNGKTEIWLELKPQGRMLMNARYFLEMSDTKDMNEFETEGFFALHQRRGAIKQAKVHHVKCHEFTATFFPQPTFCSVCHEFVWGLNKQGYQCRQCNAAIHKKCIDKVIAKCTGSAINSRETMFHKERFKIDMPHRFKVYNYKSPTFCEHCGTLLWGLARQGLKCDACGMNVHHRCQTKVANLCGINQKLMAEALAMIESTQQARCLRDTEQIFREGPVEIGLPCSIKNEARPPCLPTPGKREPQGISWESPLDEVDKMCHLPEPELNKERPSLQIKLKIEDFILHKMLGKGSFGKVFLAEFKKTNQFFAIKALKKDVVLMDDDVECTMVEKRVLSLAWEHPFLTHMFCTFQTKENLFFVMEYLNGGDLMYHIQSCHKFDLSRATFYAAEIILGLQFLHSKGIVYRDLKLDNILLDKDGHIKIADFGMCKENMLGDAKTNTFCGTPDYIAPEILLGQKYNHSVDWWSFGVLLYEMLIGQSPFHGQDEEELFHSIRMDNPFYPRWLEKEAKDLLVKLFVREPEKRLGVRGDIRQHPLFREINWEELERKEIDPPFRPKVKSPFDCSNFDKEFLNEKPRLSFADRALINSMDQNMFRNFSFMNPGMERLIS
Sequence of PKC delta kinase (Q05655 whole entry): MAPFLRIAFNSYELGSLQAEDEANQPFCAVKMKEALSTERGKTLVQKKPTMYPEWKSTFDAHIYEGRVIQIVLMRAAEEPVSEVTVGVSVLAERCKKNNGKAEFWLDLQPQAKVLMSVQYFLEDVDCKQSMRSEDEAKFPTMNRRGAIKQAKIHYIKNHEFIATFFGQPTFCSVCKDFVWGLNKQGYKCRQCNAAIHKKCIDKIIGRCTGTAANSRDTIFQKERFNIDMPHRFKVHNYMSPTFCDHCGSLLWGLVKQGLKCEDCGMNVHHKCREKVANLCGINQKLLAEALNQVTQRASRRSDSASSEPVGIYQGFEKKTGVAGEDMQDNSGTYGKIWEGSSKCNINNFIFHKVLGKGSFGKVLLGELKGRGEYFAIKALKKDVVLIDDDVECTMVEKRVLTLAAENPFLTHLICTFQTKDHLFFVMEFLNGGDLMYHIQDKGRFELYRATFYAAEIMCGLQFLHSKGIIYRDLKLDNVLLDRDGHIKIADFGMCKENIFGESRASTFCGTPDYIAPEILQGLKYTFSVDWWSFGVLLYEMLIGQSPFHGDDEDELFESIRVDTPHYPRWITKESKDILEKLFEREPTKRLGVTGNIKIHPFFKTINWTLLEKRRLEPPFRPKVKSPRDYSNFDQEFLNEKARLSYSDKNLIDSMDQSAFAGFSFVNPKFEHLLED

Turning to `N#CC1CCN(c2ccc(F)c(-c3n[nH]c4ncccc34)n2)CC1` [Compound 275], the Ki on PKC alpha kinase is > 1250 nM; at PKC delta kinase, > 1250 nM; at PKC theta kinase, > 700 nM.
Take `CC(C)C[C@H]1CN(c2cccc(-c3n[nH]c4ncccc34)n2)CC[C@@H]1N` [Compound 130]: the Ki on PKC alpha kinase was < 2800 nM; at PKC delta kinase, < 500 nM; on PKC theta kinase, < 50 nM.
For the compound `CC(C)C[C@H]1CC(F)(c2cccc(-c3n[nH]c4ncccc34)n2)CCN1` (stereo partly drawn) [Compound 146], the Ki at PKC alpha kinase is > 1250 nM; on PKC delta kinase it was < 2800 nM; on PKC theta kinase it was < 500 nM.
Turning to `CC(N)[C@H]1CCCN(c2ccc(F)c(-c3n[nH]c4ncccc34)n2)C1` (stereo partly drawn) [Compound 262], the Ki at PKC alpha kinase was > 1250 nM; at PKC delta kinase, < 500 nM; at PKC theta kinase, < 50 nM.
`CCC(C)(O)C1CN(c2ccc(F)c(-c3n[nH]c4ncccc34)n2)CCN1` (stereo not drawn) [Compound 244]: the Ki on PKC alpha kinase was > 1250 nM; at PKC delta kinase, > 1250 nM; at PKC theta kinase it was < 500 nM.
Consider `NC[C@@H]1CCN(c2ccc(C(F)(F)F)c(-c3n[nH]c4ncccc34)n2)C1` [Compound 353], for which the Ki is > 1250 nM at PKC alpha kinase, > 1250 nM at PKC delta kinase and > 700 nM at PKC theta kinase.
With `CC1(C)CC1(O)C1CN(c2ccc(F)c(-c3n[nH]c4ncccc34)n2)CCN1` (stereo not drawn) [Compound 382], the Ki is > 1250 nM on PKC alpha kinase, > 1250 nM on PKC delta kinase and < 500 nM on PKC theta kinase.
Turning to `CC(C)(C)C[C@H]1CN(c2ccc(C(F)(F)F)c(-c3n[nH]c4ncccc34)n2)CCN1` [Compound 140], the Ki at PKC alpha kinase is > 1250 nM; on PKC delta kinase, > 1250 nM; at PKC theta kinase, < 50 nM.
For the compound `CC(C)CC1CN(c2cc(C(F)(F)F)cc(-c3n[nH]c4ncccc34)n2)CCC1N` (stereo not drawn) [Compound 419], the Ki at PKC alpha kinase is > 1250 nM; on PKC delta kinase it was > 1250 nM; at PKC theta kinase, < 500 nM.
On to `CC[C@H]1CN(c2ccc(C(F)(F)F)c(-c3n[nH]c4ncccc34)n2)CCN1` [Compound 75], for which the Ki was > 1250 nM at PKC alpha kinase, < 2800 nM at PKC delta kinase and < 500 nM at PKC theta kinase.
For `NCc1cccc(-c2ccc(C(F)(F)F)c(-c3n[nH]c4ncccc34)n2)c1` [Compound 306], in that order: > 1250 nM, > 1250 nM and > 700 nM.
For `Fc1ccc(N2CCCC(C3CCCN3)C2)nc1-c1n[nH]c2ncccc12` (stereo not drawn) [Compound 314] the same measures were > 1250 nM, > 1250 nM and < 500 nM.
Consider `CC(C)C[C@@]1(F)CN(c2ccc(C(F)(F)F)c(-c3n[nH]c4ncccc34)n2)CC[C@H]1O` [Compound 198], for which the Ki at PKC alpha kinase is > 1250 nM; on PKC delta kinase, > 1250 nM; on PKC theta kinase it was < 500 nM.
`CC(C)C[C@@]1(O)CN(c2ccc(F)c(-c3n[nH]c4ncccc34)n2)CC[C@@H]1N` [Compound 269]: the Ki on PKC alpha kinase was < 500 nM; on PKC delta kinase it was < 500 nM; at PKC theta kinase, < 50 nM.
Consider `CC(C)CC1CN(c2ccc(C(F)(F)F)c(-c3n[nH]c4ncccc34)n2)CCC1CCN` (stereo not drawn) [Compound 469], for which the Ki was > 1250 nM at PKC alpha kinase, > 1250 nM at PKC delta kinase and < 500 nM at PKC theta kinase.
For the compound `CC(=O)N1CCN(c2ccc(F)c(-c3n[nH]c4ncccc34)n2)CC1C(C)(O)C(C)C` (stereo not drawn) [Compound 414], the results for the Ki at PKC alpha kinase, at PKC delta kinase and at PKC theta kinase were > 1250 nM, > 1250 nM and > 700 nM, respectively.
Take `Fc1ccc(N2CCN[C@@H](CC3CC3)C2)nc1-c1n[nH]c2ncccc12` [Compound 163]: the Ki was > 1250 nM on PKC alpha kinase, > 1250 nM on PKC delta kinase and < 50 nM at PKC theta kinase.
As to `CC(C)C(C)(O)[C@H]1CCCN(c2ccc(F)c(-c3n[nH]c4ncccc34)n2)C1` (stereo partly drawn) [Compound 277], the Ki on PKC alpha kinase is > 1250 nM; at PKC delta kinase it was > 1250 nM; at PKC theta kinase, < 500 nM.
Take `CC(C)C[C@H]1CN(c2ccc(-c3ccccc3)c(-c3n[nH]c4ncccc34)n2)CCN1` [Compound 49]: the results for the Ki at PKC alpha kinase, at PKC delta kinase and at PKC theta kinase were > 1250 nM, < 2800 nM and < 500 nM, respectively.
For `NCC1CCCN(c2cc(C(F)(F)F)cc(-c3n[nH]c4ncccc34)n2)C1` (stereo not drawn) [Compound 432], in that order: > 1250 nM, > 1250 nM and < 50 nM.
For `Cc1cc(-c2n[nH]c3ncccc23)nc(N2CCNCC2)c1` [Compound 93] the same measures were > 1250 nM, > 2000 nM and > 700 nM.
For `CCC(C)(O)C1CN(c2ccc(F)c(-c3n[nH]c4ncccc34)n2)CCN1` (stereo not drawn) [Compound 241], in that order: < 2800 nM, < 500 nM and < 50 nM.
With `CC(C)C(C)(O)C1CN(c2ccc(F)c(-c3n[nH]c4ncccc34)n2)CCN1C(=O)OC(C)(C)C` (stereo not drawn) [Compound 424], the Ki at PKC alpha kinase is > 1250 nM; at PKC delta kinase, > 1250 nM; at PKC theta kinase, > 700 nM.
Regarding `CC1(C)CN(c2ccc(C(F)(F)F)c(-c3n[nH]c4ncccc34)n2)CCN1` [Compound 80], the values for the Ki on PKC alpha kinase, at PKC delta kinase and on PKC theta kinase were > 1250 nM, < 500 nM and < 500 nM, respectively.
With `CC(C)C(F)(F)C1CN(c2ccc(C(F)(F)F)c(-c3n[nH]c4ncccc34)n2)CCN1` (stereo not drawn) [Compound 150], the Ki on PKC alpha kinase is > 1250 nM; on PKC delta kinase it was > 1250 nM; at PKC theta kinase it was < 500 nM.
On to `CN(C)C(=O)C1CN(c2ccc(C(F)(F)F)c(-c3n[nH]c4ncccc34)n2)CCN1` (stereo not drawn) [Compound 215], for which the Ki on PKC alpha kinase was > 1250 nM; on PKC delta kinase, > 1250 nM; on PKC theta kinase, > 700 nM.
Regarding `CC(F)(F)C(C)(O)C1CN(c2ccc(F)c(-c3n[nH]c4ncccc34)n2)CCN1` (stereo not drawn) [Compound 286], the Ki at PKC alpha kinase was > 1250 nM; at PKC delta kinase it was < 500 nM; on PKC theta kinase it was < 50 nM.
As for `CC(C)C(N)C1CCCN(c2ccc(F)c(-c3n[nH]c4ncccc34)n2)C1` (stereo not drawn) [Compound 280], the figures for the Ki at PKC alpha kinase, on PKC delta kinase and at PKC theta kinase were < 2800 nM, < 500 nM and < 50 nM, respectively.
In the case of `CC(C)C[C@@H]1CC(F)(c2cccc(-c3n[nH]c4ncccc34)n2)CCN1` (stereo partly drawn) [Compound 99], the Ki on PKC alpha kinase is > 1250 nM; on PKC delta kinase it was > 2000 nM; on PKC theta kinase, < 500 nM.
For `CC(C)(C)C[C@H]1CN(c2ccc(F)c(-c3n[nH]c4ncccc34)n2)CCN1` [Compound 142] the same measures were > 1250 nM, < 500 nM and < 50 nM.
`CCCC1CN(c2ccc(C(F)(F)F)c(-c3n[nH]c4ncccc34)n2)CCN1` (stereo not drawn) [Compound 113]: the results for the Ki on PKC alpha kinase, on PKC delta kinase and at PKC theta kinase were > 1250 nM, > 1250 nM and < 50 nM, respectively.
Regarding `FC(F)(F)c1ccc(N2CCCNCC2)nc1-c1n[nH]c2ncccc12` [Compound 97], the Ki at PKC alpha kinase was > 1250 nM; at PKC delta kinase it was > 2000 nM; at PKC theta kinase, < 500 nM.
For `CCNC(=O)C1CN(c2ccc(C(F)(F)F)c(-c3n[nH]c4ncccc34)n2)CCN1` (stereo not drawn) [Compound 216], in that order: > 1250 nM, > 1250 nM and > 700 nM.
With `CC(C)C(C)(O)C1CN(c2cc(C(F)(F)F)cc(-c3n[nH]c4ncccc34)n2)CCN1` (stereo not drawn) [Compound 342], the Ki at PKC alpha kinase was > 1250 nM; at PKC delta kinase, > 1250 nM; on PKC theta kinase, < 500 nM.
For the compound `NC1CCN(c2cc(CO)cc(-c3n[nH]c4ncccc34)n2)CC1` [Compound 441], the Ki was > 1250 nM at PKC alpha kinase, < 500 nM at PKC delta kinase and < 50 nM on PKC theta kinase.
In the case of `CC(C)(C)C1CN(c2ccc(F)c(-c3n[nH]c4ncccc34)n2)CCN1` (stereo not drawn) [Compound 197], the Ki on PKC alpha kinase is > 1250 nM; on PKC delta kinase, < 500 nM; on PKC theta kinase, < 50 nM.
As for `Cc1cc(N2CCNCC2)nc(-c2n[nH]c3ncccc23)c1Cl` [Compound 95], the Ki on PKC alpha kinase was > 1250 nM; at PKC delta kinase, < 2800 nM; on PKC theta kinase, < 2800 nM.
As for `CCC1(CC)CN(c2ccc(C(F)(F)F)c(-c3n[nH]c4ncccc34)n2)CCC1N` (stereo not drawn) [Compound 427], the Ki on PKC alpha kinase was > 1250 nM; at PKC delta kinase, < 500 nM; at PKC theta kinase, < 50 nM.
Turning to `O=C1CNCCN1c1cccc(-c2n[nH]c3ncccc23)n1` [Compound 166], the values for the Ki on PKC alpha kinase, on PKC delta kinase and at PKC theta kinase were > 1250 nM, > 1250 nM and > 700 nM, respectively.
Consider `CC(C)CC1(C#N)CCN(c2ccc(C(F)(F)F)c(-c3n[nH]c4ncccc34)n2)CC1` [Compound 446], for which the Ki was > 1250 nM on PKC alpha kinase, > 1250 nM on PKC delta kinase and > 700 nM on PKC theta kinase.
As for `CC(F)(F)C(C)(O)C1CN(c2ccc(F)c(-c3n[nH]c4ncccc34)n2)CCN1` (stereo not drawn) [Compound 283], the figures for the Ki on PKC alpha kinase, on PKC delta kinase and at PKC theta kinase were < 2800 nM, < 50 nM and < 1 nM, respectively.
For `OC1(C2CN(c3ccc(C(F)(F)F)c(-c4n[nH]c5ncccc45)n3)CCN2)COC1` (stereo not drawn) [Compound 233] the same measures were > 1250 nM, > 1250 nM and > 700 nM.
For `CC1(N)CCCN(c2ccc(F)c(-c3n[nH]c4ncccc34)n2)C1` (stereo not drawn) [Compound 316], in that order: > 1250 nM, > 1250 nM and < 500 nM.

The values above are taken from patent publication US9193722B2, “Tri-cyclic pyrazolopyridine kinase inhibitors” (Vertex Pharmaceuticals Incorporated, priority 2008, dated 2015).
